Read-outs that look alike come from different tables or passages of the source. Where only a bound is given, the exact number is not on record here.

The text below walks through data of patent US20240226357A1, “Sanitization Method for Affinity Chromatography Matrices” (priority 2015, published 2024).

Data set [1] concerns monoclonal antibody immobilized on a Biacore chip. The experiment in a line: Biacore (SPR) binding kinetics of ligands before and after incubation in 0.1 M peracetic acid. Particulars: ligand incubated for 0 to 24 h in 0.1 M PAA. On the technique in general: In SPR one partner is held on a chip, and binding of the other changes the refractive index at the surface.
Procedure: The kinetics was measured by Surface Plasmon Resonance on a Biacore™ instrument. […] Reference sample (0 h) was withdrawn, 100 μl and buffer exchanged to 50 mM Ammonium Bicarbonate. • 4. 10% 1 M PAA was added and the incubations started. • 5. Samples were withdrawn after 1, 2, 4, 8, 16 and 24 h, 100 μl and buffer exchanged to 50 mM Ammonium Bicarbonate to stop the oxidation reaction. • 6. The concentrations were measured in all samples by measuring the UV absorbance at 276 nm. • 7. The samples were then analyzed on LC-MS and Biacore.
The subject of data set [2] is Fab. The settings on record: Capto L, compared to PBS control.
Procedure: A PreDictor™ (GE Healthcare) 96-well filter plate with 6 microliters Capto L in each well was subjected to the following procedure: • Removal of PreDictor storage solution (20% Ethanol) • Wash: 3×200 μl 20 mM phosphate, 150 mM NaCl pH 7.4 • Wash 3×200 μl MilliQ • Addition of 600 μl SIP solutions and 20 mM phosphate, 150 mM NaCl pH 7.4 (control) (48 solutions and duplicates in plate) • Sealing of bottom and top of the plates with Parafilm • Incubation in SIP solutions for 4 or 24 hours with shaking at 450 rpm • Liquids were removed by centrifugation (500×g, 1 min).
The static binding capacity (SBC) of a Fab was determined by: • 1. Removal of SIP solutions • 2. Wash: 1x600 μl MilliQ, 1x600 μl PBS • 3. Equilibration: 3x200 μl 20 mM phosphate, 150 mM NaCl pH 7.4 • 4. Sample loading: 200 μl Fab at a concentration of 2.5 mg/mL, incubation 10 min and 90 min at 1100 rpm • 5. Collection of unbound sample in UV-readable plates and measurement of UV absorbance at 280 (and 254 nm)
Liquids were removed by centrifugation (500×g, 1 min).
The UV absorbance of the PBS buffer at 280 nm (path check on) was subtracted from the UV absorbance of the flow through fraction (A280-blank280)
The concentration in the flow through fraction was calculated using a standard curve (A280-blank280)/1.2796
[formula] • Vsample=200μl • Vmedium=6 μl • Vr=6+0.6*Vmedium=9.6 • Vr: The retained volume i.e. filter volume (6 μl) and liquid volume in resin (0.6*6)
In data set [3] the test system is Bacillus subtilis (spores). The data set can be described thus: Disinfectant challenge test in Capto L 50% slurry, viable count of spores. It counts as cell-based. Particulars: for Log10 reduction of Bacillus subtilis spores: mean of duplicates. The method, then:
(§1) The purpose of this investigation was to evaluate the bactericidal and sporicidal effect on • bacterial spores and bacteria of eight disinfectants as well as PBS as reference added to • Capto L 50% slurry. The effect was tested with contact times of 0 and 15 minutes as well as • 1, 4, and 24 hours.
(§2) The test was performed in slurries of Capto L 50% and disinfectants. Microorganisms were • added at a concentration of approximately 10^7 cfu/mL to the suspension and the reducing effect was evaluated after given time intervals by neutralizing the disinfectant. […] The results were evaluated with regard to log10 reductions of the microorganisms Bacillus subtilis (spores) and Pseudomonas aeruginosa (vegetative bacteria).
(§3) 10^7 cfu/mL of the microorganism was added to 10 mL of Capto L 50% slurry with disinfectant. Samples were mixed and duplicate samples of 0.1 mL were added to 50 mL of neutralizing agent (0.075 M phosphate buffer with 0.3% lecithin, 3.0% Tween 80, 0.5% sodium thiosulfate and 0.1% L-histidine). The total solution was analyzed by filtrating fractions corresponding to 10-times serial dilutions. Filters were rinsed three times with 100 mL of 0.9% NaCl. As positive control each microorganism was added to 50 mL of neutralizing agent, the same amount added as for the disinfectant challenge tests. The total solution was analyzed by filtrating fractions corresponding to 10-times serial dilutions. Filters were rinsed three times with 100 mL of 0.9% NaCl. Filters were incubated on TSA (Trypticase Soy Agar) at 30-35° C. for 2-5 days. Preliminary reading was performed after 1-3 days. The reduction of microorganisms was calculated as the log10 of the surviving microorganisms as compared to that of the positive control.

In data set [4] the test system is Pseudomonas aeruginosa (vegetative bacteria). The experiment in a line: Disinfectant challenge test in Capto L 50% slurry, viable count of vegetative bacteria. Type of data set: cell-based. Particulars: mean of duplicates. The method, then: as §1, §2, §3
Where [5] appears, read: 4 h incubation in SIP solution, 90' incubation with Fab sample.
[6] abbreviates: 24 h incubation in SIP solution, 10' incubation with Fab sample.

For rPrA: recombinant Protein A, in data set [1], the “Affinity before and after SIP” value is on record as “some loss in affinity with increasing SIP treatment”.

With `CC(=O)OO` [500 mM Peracetic acid, Peracetic acid], the “Relative remaining SBC (%)” value in data set [2] (setting [5]) is on record as 103%; in data set [2] (setting [6]) it was 97%; in data set [2] (24 h incubation in SIP solution, 90' incubation with Fab sample), 102%.

`N=C(NCCCCCCNC(=N)NC(=N)Nc1ccc(Cl)cc1)NC(=N)Nc1ccc(Cl)cc1.O=C(O)[C@H](O)[C@@H](O)[C@H](O)[C@H](O)CO.O=C(O)[C@H](O)[C@@H](O)[C@H](O)[C@H](O)CO` [2% Chlorhexidine digluconale, Chlorhexidine digluconale]: the “Log10 reduction of Bacillus subtilis spores” value in data set [3] (contact time 0 min) is listed as 1.3 log10; in data set [3] (contact time 15 min), 1.2 log10; in data set [3] (contact time 1 hour), 0.7 log10; in data set [3] (contact time 4 hours), 1.6 log10; in data set [3] (contact time 24 hours), 0.2 log10. The “Log10 reduction of Pseudomonas aeruginosa” value in data set [4] (contact time 0 min), in data set [4] (contact time 15 min), in data set [4] (contact time 1 hour), in data set [4] (contact time 4 hours) and in data set [4] (contact time 24 hours) was more than 6.9 log10 in each case.

Regarding `OO` [5% H2O2, hydrogen peroxide], the “Relative remaining SBC (%)” value in data set [2] (setting [5]) and in data set [2] (setting [6]) was 102% in each case.

With `CC(=O)OO` [0.1M Peracetic acid, peracetic acid], in data set [3] (among the tested disinfectants), the “Killing of B. subtilis spores (in words)” value is on record as “capable of efficiently killing B. subtilis spores”. The “Log10 reduction of Bacillus subtilis spores” value in data set [3] (contact time 0 min) was 5.6 log10; in data set [3] (contact time 15 min), more than 6.9 log10; in data set [3] (contact time 1 hour), more than 6.9 log10; in data set [3] (contact time 4 hours), more than 6.9 log10; in data set [3] (contact time 24 hours), more than 6.9 log10. The “Log10 reduction of Pseudomonas aeruginosa” value in data set [4] (contact time 0 min), in data set [4] (contact time 15 min), in data set [4] (contact time 1 hour), in data set [4] (contact time 4 hours) and in data set [4] (contact time 24 hours) was more than 6.9 log10 throughout. The “Relative remaining SBC (%)” value is 109% in data set [2] (4 h incubation in SIP solution, 10' incubation with Fab sample, listed as 100 mM Peracetic acid); 101% in data set [2] (4 h incubation in SIP solution, 90' incubation with Fab sample, listed as 100 mM Peracetic acid); 107% in data set [2] (24 h incubation in SIP solution, 10' incubation with Fab sample, listed as 100 mM Peracetic acid).
